Reference: patent US20180318287A1, “Imidazo[4,5-c]quinolin-2-one Compounds and Their Use in Treating Cancer” (ASTRAZENECA AB, priority 2015, published 2018)

Key:
Assay type in all cases: cell-based
mTOR = target: T1, mTOR (Homo sapiens, UniProt P42345); test: Assay d): mTOR cellular potency (phospho-AKT Ser473 in MDA-MB-468 cells); details: MDA-MB-468 cells, phospho-AKT Ser473, 2 h; Table 2; read-out: Assay d) mTOR Cell IC50
T1 construct: phosphorylation of the Akt protein at Ser473 (AKT lies downstream of PI3Kα in the signal transduction pathway) in the MDA-MB-468 cells; endogenous in cells; host or cells: MDA-MB-468 cells (ATCC HTB 132)
Experimental: This assay was used to measure mTOR inhibition in cells. The aim of the phospho-AKT cell based mechanism of action assay using the Acumen Explorer is to identify inhibitors of either PI3Kα or mTOR-Rictor (Rapamycin insensitive companion of mTOR). This is measured by any decrease in the phosphorylation of the Akt protein at Ser473 (AKT lies downstream of PI3Kα in the signal transduction pathway) in the MDA-MB-468 cells following treatment with compound.
MDA-MB-468 cells (human breast adenocarcinoma #ATCC HTB 132) were seeded at 1500 cells/well in 40 μl of DMEM containing 10% FBS and 1% glutamine into Greiner 384 well black flat-bottomed plates. Cell plates were incubated for 18 h in a 37° C. incubator before dosing with compounds of Formula (I) in 100% DMSO using acoustic dispensing. Compounds were dosed in a 12 point concentration range into a randomised plate map. Control wells were generated either by dosing of 100% DMSO (max signal) or addition of a reference compound (a PI3K-βinhibitor) that completely eliminated the pAKT signal (min control). Plates were incubated at 37° C. for 2 h; cells were then fixed by the addition of 10 μl of a 3.7% formaldehyde solution. After 30 minutes the plates were washed with PBS using a Tecan PW384 plate washer. Wells were blocked and cells permeabilised with the addition of 40 μl of PBS containing 0.5% Tween20 and 1% Marvel™ (dried milk powder) and incubated for 60 minutes at r.t. The plates were washed with PBS containing 0.5% (v/v) Tween20 and 20 μl rabbit anti-phospho AKT Ser473 (Cell Signalling Technologies, #3787) in same PBS-Tween+1% Marvel™ was added and incubated overnight at 4° C.
Plates were washed 3 times with PBS+0.05% Tween 20 using a Tecan PW384. 20 μl of secondary antibody Alexa Fluor 488 anti-Rabbit (Molecular Probes, #A11008) diluted in PBS+0.05% Tween20 containing 1% Marvel™ was added to each well and incubated for 1 h at r.t. Plates were washed three times as before then 20 μl PBS added to each well and plates sealed with a black plate sealer.
The plates were read on an Acumen plate reader as soon as possible, measuring green fluorescence after excitation with 488 nm laser. Using this system IC50 values were generated and quality of plates was determined by control wells. Reference compounds were run each time to monitor assay performance.

ATM kinase = target: T2, ATM kinase (Homo sapiens, UniProt Q13315); test: Assay a): ATM cellular potency (pATM Ser1981 in irradiated HT29 cells); details: HT29 cells, X-ray irradiation, pATM Ser1981; Table 2; read-out: Assay a) ATM Cell IC50
T2 construct: endogenous in cells; host or cells: HT29 cells (ECACC #85061109)
Experimental: Most ATM molecules in the cell are rapidly phosphorylated on this site after doses of radiation as low as 0.5 Gy, and binding of a phosphospecific antibody is detectable after the introduction of only a few DNA double-strand breaks in the cell.
The rationale of the p ATM assay is to identify inhibitors of ATM in cells. HT29 cells are incubated with test compounds for 1 hr prior to X-ray-irradiation. 1 h later the cells are fixed and stained for p ATM (Ser1981). The fluorescence is read on the arrayscan imaging platform.
The following morning compounds of Formula (I) in 100% DMSO were added to assay plates by acoustic dispensing. After 1 h incubation at 37° C. and 5% CO2, plates (up to 6 at a time) were irradiated using the X-RAD 320 instrument (PXi) with equivalent to ˜600cGy. Plates were returned to the incubator for a further 1 h. […] Then 20 μl of 0.1% Triton X100 in PBS was added and incubated for 20 minutes at r.t., to permeabalise cells. Then the plates were washed once with […] PBS, using a Biotek EL405 plate washer.
After 1 h incubation at r.t., the plates were washed three times with 50 μl/well PBS, using a Biotek EL405 plate washer, and plates were sealed and kept in PBS at 4° C. until read. Plates were read using an ArrayScan VTI instrument, using an XF53 filter with 10× objective.

ATR kinase = target: T3, ATR kinase (Homo sapiens, UniProt Q13535); test: Assay b): ATR cellular potency (pChk1 Ser345 in HT29 cells after 4NQO); details: HT29 cells, 4NQO, pChk1 Ser345; Table 2; read-out: Assay b) ATR Cell IC50
T3 construct: endogenous in cells; host or cells: HT29 cells (ECACC #85061109)
T3 sequence (Q13535 whole entry): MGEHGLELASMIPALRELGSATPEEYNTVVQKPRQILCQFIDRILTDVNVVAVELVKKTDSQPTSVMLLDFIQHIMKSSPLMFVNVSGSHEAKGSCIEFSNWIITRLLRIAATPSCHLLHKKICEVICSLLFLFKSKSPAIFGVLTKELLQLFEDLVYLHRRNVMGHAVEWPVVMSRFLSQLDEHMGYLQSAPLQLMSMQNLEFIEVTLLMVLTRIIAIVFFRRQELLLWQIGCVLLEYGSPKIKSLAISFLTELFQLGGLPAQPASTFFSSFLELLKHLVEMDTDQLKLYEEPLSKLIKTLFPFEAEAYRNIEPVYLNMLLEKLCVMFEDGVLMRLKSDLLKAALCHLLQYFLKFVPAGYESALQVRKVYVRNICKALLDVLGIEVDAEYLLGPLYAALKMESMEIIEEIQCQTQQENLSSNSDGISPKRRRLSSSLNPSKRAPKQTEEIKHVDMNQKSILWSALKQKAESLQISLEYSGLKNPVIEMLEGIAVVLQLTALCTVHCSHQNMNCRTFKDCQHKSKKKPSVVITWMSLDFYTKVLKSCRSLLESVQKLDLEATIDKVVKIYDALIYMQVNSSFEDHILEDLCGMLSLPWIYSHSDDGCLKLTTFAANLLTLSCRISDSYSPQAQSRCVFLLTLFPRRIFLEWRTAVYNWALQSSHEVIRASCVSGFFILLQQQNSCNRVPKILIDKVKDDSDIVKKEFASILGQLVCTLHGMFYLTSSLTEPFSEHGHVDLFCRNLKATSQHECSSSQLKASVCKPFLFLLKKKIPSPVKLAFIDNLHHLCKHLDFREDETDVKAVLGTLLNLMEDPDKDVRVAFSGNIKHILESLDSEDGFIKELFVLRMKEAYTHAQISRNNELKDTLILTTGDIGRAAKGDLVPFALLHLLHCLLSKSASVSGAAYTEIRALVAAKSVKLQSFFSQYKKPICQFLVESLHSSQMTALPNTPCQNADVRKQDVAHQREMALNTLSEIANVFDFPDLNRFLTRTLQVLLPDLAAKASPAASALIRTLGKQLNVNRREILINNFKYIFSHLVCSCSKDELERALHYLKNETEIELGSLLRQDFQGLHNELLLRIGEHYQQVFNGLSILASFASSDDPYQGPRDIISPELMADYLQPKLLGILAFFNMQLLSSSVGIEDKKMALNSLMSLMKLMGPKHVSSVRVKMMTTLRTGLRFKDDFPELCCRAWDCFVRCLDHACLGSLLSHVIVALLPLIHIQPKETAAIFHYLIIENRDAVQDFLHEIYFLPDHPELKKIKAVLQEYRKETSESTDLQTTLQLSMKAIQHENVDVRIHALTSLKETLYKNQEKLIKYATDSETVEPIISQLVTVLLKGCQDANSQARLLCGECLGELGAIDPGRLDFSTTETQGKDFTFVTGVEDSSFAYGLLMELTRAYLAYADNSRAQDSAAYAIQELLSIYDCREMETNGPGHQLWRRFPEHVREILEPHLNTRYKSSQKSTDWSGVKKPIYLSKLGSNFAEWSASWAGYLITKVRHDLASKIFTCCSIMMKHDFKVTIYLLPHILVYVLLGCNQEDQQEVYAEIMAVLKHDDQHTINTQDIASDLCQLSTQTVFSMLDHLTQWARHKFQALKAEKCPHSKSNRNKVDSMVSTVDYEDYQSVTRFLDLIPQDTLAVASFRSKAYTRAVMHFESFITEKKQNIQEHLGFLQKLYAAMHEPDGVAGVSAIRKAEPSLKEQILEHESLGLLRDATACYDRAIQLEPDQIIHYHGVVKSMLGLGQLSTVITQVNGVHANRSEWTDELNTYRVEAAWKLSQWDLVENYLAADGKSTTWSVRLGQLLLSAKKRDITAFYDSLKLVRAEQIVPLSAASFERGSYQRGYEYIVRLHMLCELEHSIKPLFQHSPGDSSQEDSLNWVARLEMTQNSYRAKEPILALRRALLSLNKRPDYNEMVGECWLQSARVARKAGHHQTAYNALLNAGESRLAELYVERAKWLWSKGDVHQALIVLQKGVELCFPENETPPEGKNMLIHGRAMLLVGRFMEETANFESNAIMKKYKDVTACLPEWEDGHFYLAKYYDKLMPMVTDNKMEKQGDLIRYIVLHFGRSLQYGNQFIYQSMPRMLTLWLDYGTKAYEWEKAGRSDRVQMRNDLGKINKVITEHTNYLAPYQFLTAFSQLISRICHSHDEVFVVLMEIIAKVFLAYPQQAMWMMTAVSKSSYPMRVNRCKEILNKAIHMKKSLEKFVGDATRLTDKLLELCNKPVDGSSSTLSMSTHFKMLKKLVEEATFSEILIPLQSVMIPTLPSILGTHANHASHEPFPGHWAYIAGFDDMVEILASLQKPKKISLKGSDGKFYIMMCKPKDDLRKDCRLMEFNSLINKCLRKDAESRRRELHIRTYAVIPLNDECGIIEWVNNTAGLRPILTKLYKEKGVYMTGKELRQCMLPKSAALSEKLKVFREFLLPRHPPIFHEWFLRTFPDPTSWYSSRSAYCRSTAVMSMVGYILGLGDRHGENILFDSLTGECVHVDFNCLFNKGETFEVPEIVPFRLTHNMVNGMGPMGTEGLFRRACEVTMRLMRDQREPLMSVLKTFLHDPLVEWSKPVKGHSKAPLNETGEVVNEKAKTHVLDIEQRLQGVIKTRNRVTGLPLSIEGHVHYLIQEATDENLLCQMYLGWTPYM
T3 sequence (Q8WXE1 whole entry partner): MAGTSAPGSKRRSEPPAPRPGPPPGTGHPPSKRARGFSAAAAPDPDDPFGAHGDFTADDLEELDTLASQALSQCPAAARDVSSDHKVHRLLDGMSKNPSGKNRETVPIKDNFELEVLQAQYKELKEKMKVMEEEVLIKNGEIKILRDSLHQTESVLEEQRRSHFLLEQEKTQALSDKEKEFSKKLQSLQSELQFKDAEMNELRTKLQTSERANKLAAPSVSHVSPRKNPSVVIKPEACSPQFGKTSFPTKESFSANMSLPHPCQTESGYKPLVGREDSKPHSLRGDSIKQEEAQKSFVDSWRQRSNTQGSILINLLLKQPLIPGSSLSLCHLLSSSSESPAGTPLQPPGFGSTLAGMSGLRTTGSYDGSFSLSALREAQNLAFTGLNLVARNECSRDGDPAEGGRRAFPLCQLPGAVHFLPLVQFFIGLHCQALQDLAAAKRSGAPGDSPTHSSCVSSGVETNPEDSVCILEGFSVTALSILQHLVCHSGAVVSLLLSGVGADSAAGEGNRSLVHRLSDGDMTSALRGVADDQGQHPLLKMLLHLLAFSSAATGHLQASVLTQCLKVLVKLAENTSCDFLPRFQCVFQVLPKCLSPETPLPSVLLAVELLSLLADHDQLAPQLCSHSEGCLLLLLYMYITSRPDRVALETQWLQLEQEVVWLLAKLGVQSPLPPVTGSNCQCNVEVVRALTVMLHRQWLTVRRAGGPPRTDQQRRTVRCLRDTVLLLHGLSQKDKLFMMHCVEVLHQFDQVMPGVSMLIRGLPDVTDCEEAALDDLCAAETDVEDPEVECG
Experimental: ATR is a PI 3-kinase-related kinase which phosphorylates multiple substrates on serine or threonine residues in response to DNA damage during or replication blocks. Chk1, a downstream protein kinase of ATR, plays a key role in DNA damage checkpoint control. Activation of Chk1 involves phosphorylation of Ser317 and Ser345 (the latter regarded as the preferential target for phosphorylation/activation by ATR).
The following morning compound of Formula (I) in 100% DMSO were added to assay plates by acoustic dispensing. After 1 h incubation at 37° C. and 5% CO2, 40 nl of 3 mM 4NQO in 100% DMSO was added to all wells by acoustic dispensing, except minimum control wells which were left untreated with 4NQO to generate a null response control. Plates were returned to the incubator for a further 1 h. […] Then 20 μl of 0.1% Triton X100 in PBS was added and incubated for 10 minutes at r.t., to permeabalise cells. Then the plates were washed once with 50 μl/well PBS, using a Biotek EL405 plate washer.
After 2 h incubation at r.t., the plates were washed three times with 50 μl/well PBS, using a Biotek EL405 plate washer, and plates were then sealed with black plate seals until read. Plates were read using an ArrayScan VTI instrument, using an XF53 filter with 10× objective.

Row | IC50 (mTOR) [nM] | IC50 (ATM kinase) [nM] | IC50 (ATR kinase) [nM] | SMILES
1 | ≥ 30000 | 36.1 | > 30000 | CO[C@H]1C[C@@H](n2c(=O)n(C)c3cnc4ccc(-c5ccc(OCCN6CCCC6)cc5)cc4c32)C1 [Example 49, 1-(3-(cis)methoxycyclobutyl)-3-methyl-8-[4-(2-pyrrolidin-1-ylethoxy)phenyl]imidazo[4,5-c]quinolin-2-one]
2 | ≥ 30000 | 13.4 | > 25500 | Cn1c(=O)n([C@@H]2CCCOC2)c2c3cc(-c4ccc(OCCN5CCCC5)cc4)ccc3ncc21 [Example 50, 3-methyl-8-[4-(2-pyrrolidin-1-ylethoxy)phenyl]-1-[(3R)-tetrahydropyran-3-yl]imidazo[4,5-c]quinolin-2-one]
3 | 1760 | 10.2 | > 30000 | Cn1c(=O)n([C@H]2CCCOC2)c2c3cc(-c4ccc(OCCN5CCCC5)cc4)ccc3ncc21 [Example 51, 3-methyl-8-[4-(2-pyrrolidin-1-ylethoxy)phenyl]-1-[(3S)-tetrahydropyran-3-yl]imidazo[4,5-c]quinolin-2-one]
4 | 5630 | 3.57 | 21900 | CO[C@H]1CC[C@H](n2c(=O)n(C)c3cnc4ccc(-c5ccc(OCCN(C)C)cc5)cc4c32)C1 [Example 52, 8-[4-[2-(dimethylamino)ethoxy]phenyl]-1-[(1S,3S)-3-methoxycyclopentyl]-3-methyl-imidazo[4,5-c]quinolin-2-one]
5 | 10000 | 9.38 | > 30000 | CN(C)CCOc1ccc(-c2ccc3ncc4c(c3c2)n(C2CCC2)c(=O)n4C)cc1 [Example 53, 1-cyclobutyl-8-[4-[2-(dimethylamino)ethoxy]phenyl]-3-methyl-imidazo[4,5-c]quinolin-2-one]
6 | 7730 | 11.1 | > 24700 | CN(C)CCOc1ccc(-c2ccc3ncc4c(c3c2)n(C2CCOCC2)c(=O)n4C)cc1 [Example 54, 8-[4-[2-(dimethylamino)ethoxy]phenyl]-3-methyl-1-tetrahydropyran-4-yl-imidazo[4,5-c]quinolin-2-one]
7 | 4440 | 11.3 | > 30000 | CO[C@H]1C[C@@H](n2c(=O)n(C)c3cnc4ccc(-c5ccc(OCCN(C)C)cc5)cc4c32)C1 [Example 55, 8-[4-[2-(dimethylamino)ethoxy]phenyl]-1-(3-(cis)methoxycyclobutyl)-3-methyl-imidazo[4,5-c]quinolin-2-one]
8 | 29200 | 53.1 | 9850 | CN(C)CCOc1ccc(-c2cc3c(cc2F)ncc2c3n(C3CCOCC3)c(=O)n2C)cc1 [Example 56, 8-[4-[2-(Dimethylamino)ethoxy]phenyl]-7-fluoro-3-methyl-1-tetrahydropyran-4-yl-imidazo[4,5-c]quinolin-2-one]

Second part, the compound before the results:

Row | SMILES | IC50 (mTOR) [nM] | IC50 (ATM kinase) [nM] | IC50 (ATR kinase) [nM]
9 | CO[C@H]1CC[C@@H](n2c(=O)n(C)c3cnc4ccc(-c5ccc(OCCCN(C)C)cc5)cc4c32)CC1 [Example 25, 8-[4-[3-(dimethylamino)propoxy]phenyl]-1-(cis-4-methoxycyclohexyl)-3-methyl-imidazo[4,5-c]quinolin-2-one] | 879 | 0.089 | 21000
10 | CO[C@H]1C[C@H](n2c(=O)n(C)c3cnc4ccc(-c5ccc(OCCCN6CCCC6)cc5)cc4c32)C1 [Example 42, 1-(trans-3-methoxycyclobutyl)-3-methyl-8-[4-(3-pyrrolidin-1-ylpropoxy)phenyl]imidazo[4,5-c]quinolin-2-one] | 2170 | 0.689 | > 30000
11 | CO[C@H]1C[C@@H](n2c(=O)n(C)c3cnc4ccc(-c5ccc(OCCCN6CCCCC6)cc5)cc4c32)C1 [Example 43, 1-(cis-3-methoxycyclobutyl)-3-methyl-8-[4-[3-(1-piperidyl)propoxy]phenyl]imidazo[4,5-c]quinolin-2-one] | 3630 | 0.254 | > 30000
12 | CN(C)CCCOc1ccc(-c2ccc3ncc4c(c3c2)n(C2CCOCC2)c(=O)n4C)cc1 [Example 44, 8-[4-[3-(dimethylamino)propoxy]phenyl]-3-methyl-1-tetrahydropyran-4-yl-imidazo[4,5-c]quinolin-2-one] | 6990 | 0.364 | > 21700
13 | CN(C)CCCOc1ccc(-c2cc3c(cc2F)ncc2c3n(C3CCOCC3)c(=O)n2C)cc1 [Example 45, 8-[4-[3-(Dimethylamino)propoxy]phenyl]-7-fluoro-3-methyl-1-tetrahydropyran-4-yl-imidazo[4,5-c]quinolin-2-one] | 8650 | 3.95 | 20000
14 | CN(C)CCOc1ccc(-c2ccc3ncc4c(c3c2)n([C@@H]2CCCOC2)c(=O)n4C)cc1 [Example 48, 8-[4-[2-(dimethylamino)ethoxy]phenyl]-3-methyl-1-[(3R)-tetrahydropyran-3-yl]imidazo[4,5-c]quinolin-2-one] | 1780 | 24.7 | > 26800
